# From patent US20200283482A1, “BICYCLIC PEPTIDE LIGAND PRR-A CONJUGATES AND USES THEREOF” (BicycleRD Limited, priority 2017, published 2020)
# Where two headings read alike, the source gives them in different places. Starred links: 1 amine or outer side, 2 acyl side, 3 side chain; linkers in the order of their positions; H or OH if unused. Positions of bridges follow the written chain, without caps; N, C: chain ends. Non-standard residues stand in square brackets, D forms with d. Residues, ends and D or L forms follow the SMILES beside them. 1Nal = N[C@@H](Cc1cccc2ccccc12)C(=O)O; TBMB = c1c(C[*:1])cc(C[*:3])cc1C[*:2]; Tle = CC(C)(C)[C@H](N)C(=O)O; βAla = NCCC(=O)O; Sar = CNCC(=O)O
# Experiments:
# [1] = target: T1, hemopexin domain of MT1 (Homo sapiens, UniProt P50281); assay: Fluorescence polarization binding to MT1-MMP hemopexin domain; conditions: read-out: apparent Kd
# Method: Direct Binding Fluorescence Polarization or Anisotropy Assays are performed by titrating a constant concentration of fluorescent tracer (here, the fluoresceinated bicyclic peptide to be studied) with its binding partner (here, the MT1-MMP hemopexin domain). As the concentration of binding partner increases during the titration, the polarization signal changes in proportion to the fraction of bound and unbound material. This allows determination of […] (Kd) quantitatively. Assay data can be fit using standard ligand binding equations.
# The titrant (binding partner) concentration is varied from 0.1 nM up to typically 5 μM. The range is chosen such that the maximum change in fluorescent polarization can be observed. Buffers employed are phosphate buffered saline in the presence of 0.01% Tween. Experiments were run in black 384 well low-bind/low volume plates (Corning 3820), and the fluorescent polarization signal was measured using a BMG Pherastar FS plate reader. […]
# Here, a preformed complex of PEX with the fluorescent PEX-binding tracer is titrated with free, non-fluoresceinated bicyclic peptide. […] Dissociation of the complex can be measured quantitatively, and the Kd of the competitor (titrant) to the target protein determined. The advantage of the competition method is that the affinities of non-fluoresceinated bicyclic peptides can be determined accurately and rapidly. […]
# [2] = Tumor localization after IV injection; format: in vivo; conditions: mouse, mice bearing MT1-positive tumor xenografts, in less than 60 minutes, read-out: tumor localization level
# [3] = target: T1, hemopexin domain of MT1; conditions: MT1-MMP binder formed with TBMB scaffold, as described in WO 2016/067035; cited from earlier work
compound,measurement,setting,value
C[C@H](NC(=O)CN(C)C(=O)CN(C)C(=O)CN(C)C(=O)CN(C)C(=O)CN(C)C(=O)CN(C)C(=O)CN(C)C(=O)CN(C)C(=O)CN(C)C(=O)CN(C)C(=O)CCN)C(=O)N[C@H]1CSCc2cc3cc(c2)CSC[C@H](NC(=O)[C@@H](C)NC(=O)[C@H](Cc2cccc4ccccc24)NC(=O)[C@H](CCC(=O)O)NC(=O)[C@H](CC(N)=O)NC(=O)[C@@H](C)NC1=O)C(=O)N[C@@H](CCC(=O)O)C(=O)N[C@@H](CC(=O)O)C(=O)N[C@@H](Cc1ccccc1)C(=O)N[C@@H](Cc1ccc(O)cc1)C(=O)N[C@@H](CC(=O)O)C(=O)N[C@@H](C(C)(C)C)C(=O)N[C@H](C(N)=O)CSC3 [N241] (H-[βAla][Sar][Sar][Sar][Sar][Sar][Sar][Sar][Sar][Sar][Sar]AC[dA]NE[1Nal][dA]CEDFYD[Tle]C-NH2; linker 13-19-26 via TBMB),Kd,[1],~2 nM
"C[C@H](NC(=O)CN(C)C(=O)CN(C)C(=O)CN(C)C(=O)CN(C)C(=O)CN(C)C(=O)CN(C)C(=O)CN(C)C(=O)CN(C)C(=O)CN(C)C(=O)CN(C)C(=O)CCN)C(=O)N[C@H]1CSCc2cc3cc(c2)CSC[C@H](NC(=O)[C@@H](C)NC(=O)[C@H](Cc2cccc4ccccc24)NC(=O)[C@H](CCC(=O)O)NC(=O)[C@H](CC(N)=O)NC(=O)[C@@H](C)NC1=O)C(=O)N[C@@H](CCC(=O)O)C(=O)N[C@@H](CC(=O)O)C(=O)N[C@@H](Cc1ccccc1)C(=O)N[C@@H](Cc1ccc(O)cc1)C(=O)N[C@@H](CC(=O)O)C(=O)N[C@@H](C(C)(C)C)C(=O)N[C@H](C(N)=O)CSC3 [^177Lu-loaded N241, metal not drawn] (H-[βAla][Sar][Sar][Sar][Sar][Sar][Sar][Sar][Sar][Sar][Sar]AC[dA]NE[1Nal][dA]CEDFYD[Tle]C-NH2; linker 13-19-26 via TBMB; N-terminus and C-terminus assumed)",tissue uptake,[2],15 to 20 %ID/g
βAla-Sar10-A-C(D-Ala)NE(1Nal)(D-Ala)CEDFYD(tBuGLy)C [17-69-07-N241],Kd,[3],1.2 nM
